We go through one molecule from patent publication EP0413433A1, “Isoindolyl-imidazole-derivatives and pharmaceutical compositions” (Beecham Group p.l.c., priority 1989, dated 1991).

The term Ki denotes a dissociation constant, usually derived from enzyme kinetics or from competition with a known ligand.

The test system of assay [1] is post-junctional α₂-adrenoceptors. Put plainly: Post-junctional α₂-adrenoceptor antagonism: antagonism of noradrenaline contractions in ring segments of rabbit lateral saphenous vein. The note with it: rabbit lateral saphenous vein rings, 37°C, Krebs medium. The procedure:
To determine post-junctional α₂-adrenoceptor activity, ring segments of rabbit lateral saphenous vein were mounted in organ baths at 37 °C containing Krebs medium. Contractions of this tissue in response to noradrenaline are mediated via post-junctional α₂-adrenoceptors (Alabaster et al, 1985) and therefore the ability of α₂-adrenoceptor antagonists to pharmacologically antagonise such contractions gives a quantitive measure of the activity of compounds for this receptor subtype.

In assay [2] the test system is post-junctional α₁-adrenoceptors. Put plainly: Post-junctional α₁-adrenoceptor agonism: contraction of rings of rabbit aorta in comparison with noradrenaline. The note with it: agonist contraction in comparison with noradrenaline. As for the experimental part: Post-junctional α₁ activity was determined using a method similar to that for post-junctional α₂ activity, but using rings of rabbit aorta. Contractions of this tissue are mediated by post-junctional α₁-adrenoceptors (Docherty et al. 1981), and so the pD2 and intrinsic activity (IA) of α₁-adrenoceptor agonists were calculated from their ability to contract the rings of aorta in comparison with noradrenaline.

The next assay addresses T1, α2-Adrenoceptor (Homo sapiens, UniProt P08913).
T1 construct: Rauwolscine; from tissue; host or cells: human platelet membranes
T1 sequence (P08913 1-465): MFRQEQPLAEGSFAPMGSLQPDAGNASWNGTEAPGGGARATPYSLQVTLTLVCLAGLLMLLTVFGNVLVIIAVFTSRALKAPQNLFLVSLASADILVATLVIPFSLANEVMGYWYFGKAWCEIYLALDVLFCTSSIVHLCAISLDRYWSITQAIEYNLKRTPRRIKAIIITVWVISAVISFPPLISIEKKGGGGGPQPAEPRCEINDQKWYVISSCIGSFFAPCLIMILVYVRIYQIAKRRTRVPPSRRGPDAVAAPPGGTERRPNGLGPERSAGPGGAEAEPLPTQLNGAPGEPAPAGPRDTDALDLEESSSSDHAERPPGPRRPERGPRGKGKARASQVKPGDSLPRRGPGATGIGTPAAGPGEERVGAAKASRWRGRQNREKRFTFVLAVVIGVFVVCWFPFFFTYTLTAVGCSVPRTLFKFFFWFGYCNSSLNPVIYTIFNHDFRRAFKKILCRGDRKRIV
Put plainly: α2-Adrenoceptor binding: [³H] Rauwolscine displacement on human platelet membranes. The note with it: [³H] Rauwolscine (0.5-1.0 nM), 30 minutes at 30°C, Cheng Prussoff equation, read-out: Binding Affinity. Ki. As for the experimental part: Human platelet membranes were incubated with [³H] Rauwolscine (0.5-1.0 nM) for 30 minutes at 30 °C with varying concentrates of the drug (0.1-10,000 nM). The binding assay was stopped by filtering and rinsing on GF/B glass fibre filters.
Binding Affinity (Ki) was calculated using the Cheng Prussoff equation.

Take `C[C@@H]1c2ccccc2CN1CC1=NCCN1` [Example 1, (R)-2-[(4,5-Dihydro-1H-imidazol-2-yl)methyl]-2,3-dihydro-1-methyl-1H-isoindole]: the “Post-synaptic PA₂” value in assay [1] came out at 7.3. In addition, in assay [2], the “Post-synaptic pD₂” value is on record as <4. In addition, the inhibition constant Ki on α2-Adrenoceptor amounted to 300 pM.
